Experimental findings from US8507472B2 (priority 2010, dated 2013) are described below.

Several values for one entry are separate records, joined by “and”; a condition that tells them apart may be missing. Identical values can stand only once.

Experiment [1] deals with Fusarium nivale (var. majus). Briefly: Fusarium nivale (var. majus) test (wheat)/protective. In kind it is in vivo. Conditions: 1000 ppm active compound, protective, evaluation 5 days after inoculation. Here is the method: (§1) Solvent: 49 parts by weight of N,N-dimethylacetamide
(§2) Emulsifier: 1 part by weight of alkylaryl polyglycol ether
(§3) To produce a suitable preparation of active compound, 1 part by weight of active compound is mixed with the stated amounts of solvent and emulsifier, and the concentrate is diluted with water to the desired concentration.
(§4) To test for protective activity, young plants are sprayed with the active compound preparation at the stated application rate.
After the spray coating has dried on, the plants are sprayed with spores of a spore suspension of Fusarium nivale (var. majus).
The plants are placed in a greenhouse chamber under a translucent incubation hood at 10° C. and 100% relative atmospheric humidity.
Evaluation is carried out 5 days after the inoculation. 0% means an efficacy which corresponds to that of the control, whereas an efficacy of 100% means that no infection is observed.

The test system of the next experiment is Septoria tritici. Briefly: Septoria tritici test (wheat)/protective. The conditions noted are these: in vivo. It is filed as in vivo. On the procedure:
as §1, §2
To produce a suitable preparation of active compound, 1 part by weight of active compound is mixed with the stated amount of solvent and emulsifier, and the concentrate is diluted with water to the desired concentration.
To test for protective activity, young plants are sprayed with the active compound preparation at the stated application rate. After the spray coating has dried on, the plants are sprayed with a spore suspension of Septoria tritici. The plants remain in an incubation cabin at 20° C. and 100% relative atmospheric humidity for 48 hours. The plants are then placed under a translucent hood at 15° C. and 100% relative atmospheric humidity for a further 60 hours.
The plants are placed in a greenhouse at a temperature of about 15° C. and a relative atmospheric humidity of 80%.
Evaluation is carried out 21 days after the inoculation. 0% means an efficacy which corresponds to that of the control, whereas an efficacy of 100% means that no infection is observed.

The subject of another experiment is Leptosphaeria nodorum. Briefly: Leptosphaeria nodorum test (wheat)/protective. It is filed as in vivo. Conditions: in vivo. In a few lines:
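Young wheat plants were sprayed protectively, then inoculated 1 day later with L. nodorum spores and held 48 h at 100% humidity and 22° C. They were then kept in a greenhouse at 90% humidity and 22° C. Efficacy was scored 7-9 days post-inoculation, where 0% equals control and 100% means no infection.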

The test system of the next experiment is Uromyces appendiculatus. Briefly: Uromyces test (bean)/protective. Conditions: in vivo. It is filed as in vivo. Here is the method:
(§5) Solvents: 24.5 parts by weight of acetone
(§6) • 24.5 parts by weight of dimethylacetamide Emulsifier: 1 part by weight of alkylaryl polyglycol ether
(§7) To produce a suitable preparation of active compound, 1 part by weight of active compound is mixed with the stated amounts of solvents and emulsifier, and the concentrate is diluted with water to the desired concentration.
To test for protective activity, young plants are sprayed with the active compound preparation at the stated application rate. After the spray coating has dried on, the plants are inoculated with an aqueous spore suspension of the bean rust pathogen Uromyces appendiculatus and then remain in an incubation cabin at about 20° C. and 100% relative atmospheric humidity for 1 day.
(§8) The plants are then placed in a greenhouse at about 21° C. and a relative atmospheric humidity of about 90%.
(§9) Evaluation is carried out 10 days after the inoculation. 0% means an efficacy which corresponds to that of the control, whereas an efficacy of 100% means that no infection is observed.

Another experiment concerns DON/AcDON production. Nature of the experiment: microbe, parasite or virus in culture. It is filed as cell-based, Fusarium graminearum. The conditions noted are these: 7 days at 28° C.
The next experiment concerns Alternaria solani. Briefly: Alternaria test (tomato)/protective. It is filed as in vivo. Conditions: in vivo. In a few lines:
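Treatment was protective: spray application at the stated rate came one day before spore inoculation. Incubation was 24 h at 22 °C and 100% humidity, then 20 °C and 96% humidity. Infection was rated at day 7 as % efficacy against the control, with 100% meaning no disease.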

In the next experiment the test system is Phytophthora infestans. In kind it is in vivo. The conditions noted are these: in vivo.
Experiment [2] concerns Fusarium graminearum. Nature of the experiment: microbe, parasite or virus in culture. It is filed as cell-based. Conditions: 50 μM.
Experiment [3] deals with Fusarium graminearum. It is filed as in vivo. Conditions: in vivo.
A further experiment concerns Puccinia triticina. Briefly: Puccinia triticina test (wheat)/protective. In kind it is in vivo. Conditions: in vivo. On the procedure: Solvent: 49 parts by weight of […]
as §2, §3, §4
After the spray coating has dried on, the plants are sprayed with spores of a spore suspension of Puccinia triticina. The plants remain in an incubation cabin at 20° C. and 100% relative atmospheric humidity for 48 hours.
The plants are placed in greenhouse at a temperature of about 20° C. and a relative atmospheric humidity of about 80%.
Evaluation is carried out 8 days after the inoculation. 0% means an efficacy which corresponds to that of the control, whereas an efficacy of 100% means that no infection is observed.

The subject of the next experiment is Venturia inaequalis. Briefly: Venturia test (apple)/protective. It is filed as in vivo. Conditions: 100 ppm active compound, protective, evaluation 10 days after inoculation. Here is the method:
Solvents: 24.5 parts by weight of acetone • 24.5 parts by weight of dimethylacetamide Emulsifier: 1 part by weight of alkylaryl polyglycol ether
as §7
To test for protective activity, young plants are sprayed with the active compound preparation at the stated application rate. After the spray coating has dried on, the plants are inoculated with an aqueous conidia suspension of the apple scab pathogen Venturia inaequalis and then remain in an incubation cabin at about 20° C. and 100% relative atmospheric humidity for 1 day.
as §8, §9

Another experiment relates to Pyrenophora teres. Nature of the experiment: Pyrenophora teres test (barley)/protective. It is filed as in vivo. Conditions: in vivo. In a few lines: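 Efficacy, read 7-9 days after spore inoculation, runs from 0% (equal to untreated control) to 100% (no infection). Barley sprayed with water-diluted DMF/emulsifier formulation was inoculated one day later, incubated 48 h at 22° C. and 100% rel. humidity, then held at 20° C. and 80% humidity.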

A further experiment relates to Botrytis cinerea. Nature of the experiment: Botrytis test (bean)/protective. Conditions: 100 ppm active compound, protective, evaluation 2 days after inoculation. It is filed as in vivo. Here is the method:
as §5, §6, §7
To test for protective activity, young plants are sprayed with the active compound preparation at the stated application rate. After the spray coating has dried on, 2 small pieces of agar colonized by Botrytis cinerea are placed onto each leaf. The inoculated plants are placed in a dark chamber at about 20° C. and 100% relative atmospheric humidity.
2 days after the inoculation, the size of the infected areas on the leaves is evaluated. 0% means an efficacy which corresponds to that of the control, whereas an efficacy of 100% means that no infection is observed.

The subject of the next experiment is Sphaerotheca fuliginea. Nature of the experiment: Sphaerotheca test (cucumber)/protective. In kind it is in vivo. The conditions noted are these: in vivo. In short, it runs like this:
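Infection was rated 7 days after spore inoculation as % efficacy (0% = control level, 100% = no disease). Inoculation followed 1 day after preventive spray of young cucumbers with compound formulated in N,N-dimethylformamide plus emulsifier and diluted with water; plants were held at 23 °C and 70% relative humidity.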

Regarding `O=C(Nc1cc(-c2c(-c3ccc(F)cc3)nn3c2CCCC3)ccn1)c1ccccc1` [Example 32], the efficacy in % is listed as 86% in experiment [1]; 100% in the experiment with Septoria tritici; 90% in the experiment on Leptosphaeria nodorum; 96% in the experiment on Uromyces appendiculatus; 78% in the experiment with Alternaria solani; 70% in the experiment on Phytophthora infestans. Further, the efficacy in % in the experiment with Fusarium graminearum [3] is reported as 86%; with Puccinia triticina, 89%; in the experiment with Venturia inaequalis, 90%; with Pyrenophora teres it was 78%; in the experiment with Botrytis cinerea, 98%. In the experiment with DON/AcDON production, the “% inhibition of DON/AcDON at 50 μM” value is listed as 99%. Besides, the “% inhibition of the fungal growth of Fusarium graminearum at 50 μM” value (shortened to “% inhibition of the fungal growth … at 50 μM”) with Fusarium graminearum [2] is on record as 94%.
For `COCC(=O)Nc1cc(-c2c(-c3ccccc3)nn3c2CCCC3)ccn1` [Example 23], the efficacy in % amounted to 86% in experiment [1]; 86% in the experiment with Septoria tritici; 90% in the experiment with Leptosphaeria nodorum; 95% in the experiment on Uromyces appendiculatus; 95% in the experiment with Alternaria solani; 80% with Phytophthora infestans. For the same compound, the efficacy in % in the experiment on Sphaerotheca fuliginea was 89%; with Fusarium graminearum [3], 88%; in the experiment on Puccinia triticina it was 75%; in the experiment with Venturia inaequalis it was 98%; with Pyrenophora teres, 95%; in the experiment with Botrytis cinerea, 100%. Moreover, the “% inhibition of DON/AcDON at 50 μM” value in the experiment on DON/AcDON production is on record as 100%. The “% inhibition of the fungal growth … at 50 μM” value in the experiment on Fusarium graminearum [2] came out at 97%.
With `CC1CCc2c(-c3ccncc3F)c(-c3ccc(F)cc3)nn21` (stereo not shown) [Example 117], the efficacy in % came out at 100% in [1]; 100% in the experiment on Septoria tritici; 86% in the experiment on Leptosphaeria nodorum; 90% in the experiment with Uromyces appendiculatus; 94% in the experiment with Alternaria solani; 95% with Sphaerotheca fuliginea. Also, the efficacy in % with Fusarium graminearum [3], with Puccinia triticina, in the experiment on Venturia inaequalis, in the experiment on Pyrenophora teres and in the experiment with Botrytis cinerea was 100% each time.
As for `CCC(=O)Nc1cc(-c2c(-c3ccc(F)cc3)nn3c2CCC3)ccn1` [Example 40], the efficacy in % in experiment [1] is 100%; in the experiment with Septoria tritici, 90%; in the experiment on Leptosphaeria nodorum it was 95%; in the experiment with Uromyces appendiculatus it was 81% and 75%; in the experiment with Alternaria solani, 100%; in the experiment on Phytophthora infestans, 70%. For the same compound, the efficacy in % with Sphaerotheca fuliginea was determined as 94%; in the experiment with Fusarium graminearum [3], 100%; in the experiment on Puccinia triticina, 100%; in the experiment with Venturia inaequalis it was 94%; with Pyrenophora teres, 95%; in the experiment with Botrytis cinerea, 100%.
With `CC(C)C(=O)Nc1cc(-c2c(-c3ccc(F)cc3)nn3c2CCC3C)ccn1` (stereo not shown) [Example 77], the efficacy in % in experiment [1] is on record as 100%; with Septoria tritici it was 100%; with Leptosphaeria nodorum, 94%; with Uromyces appendiculatus, 98%; in the experiment with Alternaria solani it was 89%; in the experiment with Fusarium graminearum [3], 90%. Besides, the efficacy in % is listed as 88% in the experiment on Puccinia triticina, 100% with Venturia inaequalis and 100% in the experiment with Botrytis cinerea.
Turning to `CCC(=O)Nc1cc(-c2c(-c3ccc(F)cc3)nn3c2CCC3C)ccn1` (stereo not shown) [Example 76], the efficacy in % in experiment [1] was 100%; with Septoria tritici it was 100%; in the experiment with Leptosphaeria nodorum, 89%; in the experiment on Uromyces appendiculatus, 95%; in the experiment with Alternaria solani, 100%; in the experiment with Sphaerotheca fuliginea, 100%. Further, the efficacy in % in the experiment on Fusarium graminearum [3] is reported as 90%; in the experiment on Puccinia triticina, 88%; with Venturia inaequalis, 100%; in the experiment with Botrytis cinerea, 100%.
For `O=CNc1cc(-c2c(-c3ccc(F)cc3)nn3c2CCCC3)ccn1` [Example 36], the efficacy in % in experiment [1] is 88%; in the experiment with Septoria tritici it was 100%; in the experiment with Leptosphaeria nodorum, 90%; with Uromyces appendiculatus it was 85%; in the experiment with Phytophthora infestans, 80%; in the experiment with Sphaerotheca fuliginea, 94%. Also, the efficacy in % with Fusarium graminearum [3] is 93%; in the experiment on Puccinia triticina, 78%; in the experiment with Pyrenophora teres, 89%. Moreover, in the experiment on DON/AcDON production, the “% inhibition of DON/AcDON at 50 μM” value worked out at 99%. In addition, in the experiment with Fusarium graminearum [2], the “% inhibition of the fungal growth … at 50 μM” value was found to be 94%.
As for `CC(C)(O)C(=O)Nc1cc(-c2c(-c3ccccc3)nn3c2CCCC3)ccn1` [Example 50], the efficacy in % came to 83% in experiment [1]; 90% with Septoria tritici; 95% with Alternaria solani; 94% in the experiment with Sphaerotheca fuliginea; 83% with Fusarium graminearum [3]; 86% with Puccinia triticina. The values for the efficacy in % in the experiment with Venturia inaequalis and in the experiment on Pyrenophora teres were 88% and 95%, respectively. In addition, in the experiment with DON/AcDON production, the “% inhibition of DON/AcDON at 50 μM” value came out at 92%. Also, the “% inhibition of the fungal growth … at 50 μM” value in the experiment with Fusarium graminearum [2] is on record as 57%.
With `CC(=O)Nc1cc(-c2c(-c3ccsc3)nn3c2CCCC3)ccn1` [Example 58], the efficacy in % in [1] is 100%; in the experiment on Septoria tritici it was 89%; in the experiment on Leptosphaeria nodorum, 94%; in the experiment with Alternaria solani, 80%; in the experiment with Phytophthora infestans, 70%; in the experiment with Sphaerotheca fuliginea, 96%. For the same compound, the efficacy in % with Fusarium graminearum [3] was found to be 100%; in the experiment with Puccinia triticina, 100%; in the experiment on Venturia inaequalis it was 99%; in the experiment with Pyrenophora teres it was 90%; in the experiment with Botrytis cinerea, 100%. Also, the “% inhibition of DON/AcDON at 50 μM” value with DON/AcDON production is reported as 100%. Moreover, the “% inhibition of the fungal growth … at 50 μM” value with Fusarium graminearum [2] is given as 100%.
